Data as given in US10294202B2, “Pyrrolidinones as herbicides” (FMC Corporation, priority 2013, dated 2019).

Assays:
Assay in all cases: Test E preemergence herbicide test
Set-up in all cases: key: 0 = no effect, 100 = complete control
sandbur = format: in vivo, Cenchrus echinatus
Summary of the method: (§1)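 Seeds were sown in silt loam soil and treated preemergence with test chemicals in a non-phytotoxic solvent mixture containing a surfactant. Plants were kept in a greenhouse for 21 days, then visually rated against untreated controls on a 0–100 scale (0 = no effect, 100 = complete control).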

barnyardgrass = format: in vivo, Echinochloa crus-galli
Summary of the method: as §1

soybean = format: in vivo, Glycine max
Summary of the method: as §1

johnsongrass = format: in vivo, Sorghum halepense
Summary of the method: as §1

With O=C1NCC(c2ccc(C(F)(F)F)cc2)C1C(=O)Nc1ccc(F)c(F)c1F (stereo not shown) [Compound 232] the “Plant response rating, Sandbur” value (sandbur; 31 g ai/ha) was 35, the “Plant response rating, Sandbur” value (sandbur; 62 g ai/ha) was 65 and the “Plant response rating, Sandbur” value (sandbur; 125 g ai/ha) was 90. For the same compound, the “Plant response rating, Sandbur” value (sandbur; 250 g ai/ha) was 90, the “Plant response rating, Barnyardgrass” value (barnyardgrass; 31 g ai/ha) was 60 and the “Plant response rating, Barnyardgrass” value (barnyardgrass; 62 g ai/ha) was 70. For the same compound, the “Plant response rating, Barnyardgrass” value (barnyardgrass; 125 g ai/ha) was 98, the “Plant response rating, Barnyardgrass” value (barnyardgrass; 250 g ai/ha) was 95 and the “Plant response rating, Soybean” value (soybean; 31 g ai/ha) was 0. For the same compound, the “Plant response rating, Soybean” value (soybean; 62 g ai/ha) was 0, the “Plant response rating, Soybean” value (soybean; 125 g ai/ha) was 0 and the “Plant response rating, Soybean” value (soybean; 250 g ai/ha) was 0. The “Plant response rating, Johnsongrass” value (johnsongrass; 31 g ai/ha) was 0, the “Plant response rating, Johnsongrass” value (johnsongrass; 62 g ai/ha) was 0 and the “Plant response rating, Johnsongrass” value (johnsongrass; 125 g ai/ha) was 0. For the same compound, the “Plant response rating, Johnsongrass” value (johnsongrass; 250 g ai/ha) was 25.
